Data published in patent publication US11497752B2, “Compounds and uses thereof” (Foghorn Therapeutics Inc., priority 2018, dated 2022).

Legend:
BRM = BRM (Homo sapiens, UniProt P51531); assay: ATPase catalytic activity of BRM (ADP-Glo in vitro biochemical assay)
BRG-1 = BRG-1 (Homo sapiens, UniProt P51532); assay: ATPase catalytic activity of BRG-1 (ADP-Glo in vitro biochemical assay)
Chain of BRG-1 (P51532 whole entry): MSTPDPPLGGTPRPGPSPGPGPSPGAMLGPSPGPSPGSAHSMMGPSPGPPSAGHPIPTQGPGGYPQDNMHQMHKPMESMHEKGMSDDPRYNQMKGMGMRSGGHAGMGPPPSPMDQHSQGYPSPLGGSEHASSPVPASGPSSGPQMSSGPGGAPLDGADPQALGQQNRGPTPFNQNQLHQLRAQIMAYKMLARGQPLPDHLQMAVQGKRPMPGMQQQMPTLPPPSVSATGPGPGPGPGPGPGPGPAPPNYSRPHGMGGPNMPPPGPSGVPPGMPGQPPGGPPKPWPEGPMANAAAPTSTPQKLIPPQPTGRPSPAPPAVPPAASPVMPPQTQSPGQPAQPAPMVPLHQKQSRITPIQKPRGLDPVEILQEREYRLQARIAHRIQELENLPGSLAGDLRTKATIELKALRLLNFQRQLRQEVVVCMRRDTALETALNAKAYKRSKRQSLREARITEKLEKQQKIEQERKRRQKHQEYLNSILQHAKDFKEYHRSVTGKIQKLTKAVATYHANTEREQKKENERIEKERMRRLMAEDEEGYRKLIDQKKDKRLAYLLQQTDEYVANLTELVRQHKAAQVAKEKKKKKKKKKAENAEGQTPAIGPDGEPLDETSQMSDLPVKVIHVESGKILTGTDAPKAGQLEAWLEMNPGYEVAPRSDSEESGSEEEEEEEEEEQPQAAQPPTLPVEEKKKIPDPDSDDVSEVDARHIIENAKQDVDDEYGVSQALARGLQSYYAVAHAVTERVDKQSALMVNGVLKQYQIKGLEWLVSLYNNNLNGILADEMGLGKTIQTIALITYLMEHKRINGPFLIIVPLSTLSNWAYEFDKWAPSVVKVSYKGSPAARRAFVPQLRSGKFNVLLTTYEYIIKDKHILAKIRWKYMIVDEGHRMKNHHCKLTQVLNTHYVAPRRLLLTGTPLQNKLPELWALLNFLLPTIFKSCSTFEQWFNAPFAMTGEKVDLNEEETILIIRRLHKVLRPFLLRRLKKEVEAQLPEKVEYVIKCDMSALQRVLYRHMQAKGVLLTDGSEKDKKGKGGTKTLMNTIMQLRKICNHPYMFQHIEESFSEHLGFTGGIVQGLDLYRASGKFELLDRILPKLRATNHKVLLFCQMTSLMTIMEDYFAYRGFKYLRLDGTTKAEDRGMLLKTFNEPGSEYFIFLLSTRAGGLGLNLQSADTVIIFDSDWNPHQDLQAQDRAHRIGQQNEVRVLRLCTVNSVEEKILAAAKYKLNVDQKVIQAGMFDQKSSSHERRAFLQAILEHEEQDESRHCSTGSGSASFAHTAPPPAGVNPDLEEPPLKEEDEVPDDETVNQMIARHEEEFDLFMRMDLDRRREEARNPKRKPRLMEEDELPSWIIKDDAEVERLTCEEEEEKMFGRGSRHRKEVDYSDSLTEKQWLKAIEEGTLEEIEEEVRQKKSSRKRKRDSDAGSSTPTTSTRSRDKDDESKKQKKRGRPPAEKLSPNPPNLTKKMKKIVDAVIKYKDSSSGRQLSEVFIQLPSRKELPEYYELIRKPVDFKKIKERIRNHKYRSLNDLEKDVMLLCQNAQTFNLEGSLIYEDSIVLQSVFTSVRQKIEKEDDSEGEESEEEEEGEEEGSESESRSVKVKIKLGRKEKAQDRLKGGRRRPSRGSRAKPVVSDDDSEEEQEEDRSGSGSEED

Chain of BRM (P51531 whole entry): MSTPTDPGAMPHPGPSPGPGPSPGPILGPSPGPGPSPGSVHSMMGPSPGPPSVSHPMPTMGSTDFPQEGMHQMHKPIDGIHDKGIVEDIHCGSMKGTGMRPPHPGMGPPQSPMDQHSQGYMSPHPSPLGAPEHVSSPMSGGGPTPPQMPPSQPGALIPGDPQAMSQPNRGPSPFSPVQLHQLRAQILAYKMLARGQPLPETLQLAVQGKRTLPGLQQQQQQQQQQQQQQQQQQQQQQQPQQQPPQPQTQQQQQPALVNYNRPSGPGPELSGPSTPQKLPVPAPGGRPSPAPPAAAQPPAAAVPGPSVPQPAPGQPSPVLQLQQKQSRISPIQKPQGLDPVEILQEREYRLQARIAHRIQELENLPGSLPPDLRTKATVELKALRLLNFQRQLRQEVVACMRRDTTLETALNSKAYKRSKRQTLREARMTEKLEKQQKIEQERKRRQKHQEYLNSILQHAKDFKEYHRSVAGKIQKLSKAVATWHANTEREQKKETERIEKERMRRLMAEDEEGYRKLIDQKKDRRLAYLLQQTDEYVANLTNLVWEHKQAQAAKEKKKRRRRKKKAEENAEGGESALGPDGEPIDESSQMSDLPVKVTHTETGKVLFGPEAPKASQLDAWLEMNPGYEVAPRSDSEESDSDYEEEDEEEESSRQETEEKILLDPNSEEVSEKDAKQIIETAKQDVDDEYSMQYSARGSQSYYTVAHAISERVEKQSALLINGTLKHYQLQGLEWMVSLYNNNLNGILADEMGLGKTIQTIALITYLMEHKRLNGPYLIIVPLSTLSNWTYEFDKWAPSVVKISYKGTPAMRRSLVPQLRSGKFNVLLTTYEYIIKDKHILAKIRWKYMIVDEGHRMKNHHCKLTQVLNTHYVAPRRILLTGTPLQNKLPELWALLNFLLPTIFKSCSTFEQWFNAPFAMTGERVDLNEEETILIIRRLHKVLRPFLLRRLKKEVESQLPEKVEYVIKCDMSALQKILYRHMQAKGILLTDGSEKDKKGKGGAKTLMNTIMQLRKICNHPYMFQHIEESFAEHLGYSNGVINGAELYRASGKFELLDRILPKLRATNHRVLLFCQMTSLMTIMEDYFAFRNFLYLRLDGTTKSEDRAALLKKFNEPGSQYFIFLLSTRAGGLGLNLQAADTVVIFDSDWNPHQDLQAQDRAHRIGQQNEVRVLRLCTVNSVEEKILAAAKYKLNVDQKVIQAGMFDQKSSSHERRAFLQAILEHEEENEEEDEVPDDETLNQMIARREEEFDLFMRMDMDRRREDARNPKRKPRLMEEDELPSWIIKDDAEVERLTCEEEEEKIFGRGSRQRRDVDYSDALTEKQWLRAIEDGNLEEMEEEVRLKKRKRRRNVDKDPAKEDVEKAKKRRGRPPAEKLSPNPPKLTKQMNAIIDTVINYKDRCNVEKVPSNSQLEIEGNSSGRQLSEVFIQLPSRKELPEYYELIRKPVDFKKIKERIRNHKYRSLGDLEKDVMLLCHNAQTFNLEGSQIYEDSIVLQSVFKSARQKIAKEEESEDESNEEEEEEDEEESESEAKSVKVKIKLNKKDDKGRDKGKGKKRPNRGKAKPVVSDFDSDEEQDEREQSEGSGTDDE

SMILES	IC50 (BRM)	BRM Max % Inhibition (BRM; Table 5)	IC50 (BRG-1)	BRG1 Max % Inhibition (BRG-1; Table 5)	BRM Max % Inhibition (BRM; Table 6)	BRG1 Max % Inhibition (BRG-1; Table 6)
CSCC[C@H](NC(=O)c1ccc(S(C)(=O)=O)cc1)C(=O)Nc1nc(-c2ccccc2)cs1 [Compound 86]	> 10000 nM	>70%	> 10000 nM	>70%		
CS(=O)(=O)c1cccc(C(=O)NCC(=O)Nc2nc(-c3ccc4c(c3)OCCO4)cs2)c1 [Compound 92, N-(2-((4-(2,3-dihydrobenzo[b][1,4]dioxin-6-yl)thiazol-2-yl)amino)-2-oxoethyl)-3-(methylsulfonyl)benzamide]	100 to 1000 nM		100 to 1000 nM		>90%	>80%
COc1cc(-c2cccc(-c3csc(NC(=O)CNC(=O)c4ccc(N)cn4)n3)c2)ccn1 [Compound 199, 5-amino-N-[2-[[4-[3-(2-methoxy-4-pyridyl)phenyl]thiazol-2-yl]amino]-2-oxo-ethyl]pyridine-2-carboxamide]	100 to 1000 nM		100 to 1000 nM		>95%	>95%
Nc1ccc(C(=O)NCC(=O)Nc2nc(-c3ccc4c(c3)OCCO4)cs2)cc1 [Compound 109, 4-amino-N-(2-((4-(2,3-dihydrobenzo[b][1,4]dioxin-6-yl)thiazol-2-yl)amino)-2-oxoethyl)benzamide]	100 to 1000 nM		100 to 1000 nM		>90%	>90%
Nc1ccc(C(=O)NCC(=O)Nc2nc(-c3ccc(O)cc3)cs2)cc1 [Compound 115, 4-amino-N-(2-((4-(4-hydroxyphenyl)thiazol-2-yl)amino)-2-oxoethyl)benzamide]	100 to 1000 nM		100 to 1000 nM		>90%	>90%
Cc1ccc(-c2csc(NC(=O)CNC(=O)c3cccc(S(=O)(=O)N(C)C)c3)n2)cc1 [Compound 31, 3-(dimethylsulfamoyl)-N-[2-oxo-2-[[4-(p-tolyl)thiazol-2-yl]amino]ethyl]benzamide]	1000 to 10000 nM	>30%	1000 to 10000 nM	<30%		
CN(C)S(=O)(=O)c1cccc(C(=O)NCC(=O)Nc2nc(-c3cccc(Br)c3)cs2)c1 [Compound 7]	1000 to 10000 nM	>90%	1000 to 10000 nM	>60%		
Nc1ccc(C(=O)NCC(=O)Nc2nc(-c3ccccc3O)cs2)cc1 [Compound 114, 4-amino-N-(2-((4-(2-hydroxyphenyl)thiazol-2-yl)amino)-2-oxoethyl)benzamide]	100 to 1000 nM		1000 to 10000 nM		>80%	>80%
CSCC[C@H](NC(=O)c1ccc(N)cc1)C(=O)Nc1nc(-c2ccc(C#N)cc2)cs1 [Compound 107, (S)-4-amino-N-(1-((4-(4-cyanophenyl)thiazol-2-yl)amino)-4-(methylthio)-1-oxobutan-2-yl)benzamide]	100 to 1000 nM		1000 to 10000 nM		>95%	>95%
Nc1ccc(C(=O)NCC(=O)Nc2nc(-c3cccc(-c4ccnc(C5(C(=O)O)CC5)c4)c3)cs2)cc1 [Compound 219, 1-[4-[3-[2-[[2-[(4-aminobenzoyl)amino]acetyl]amino]thiazol-4-yl]phenyl]-2-pyridyl]cyclopropanecarboxylic acid]	< 100 nM		< 100 nM		>95%	>95%
Nc1ccc(C(=O)NCC(=O)Nc2nc(-c3ccc4cncnc4c3)cs2)cc1 [Compound 240, 4-amino-N-[2-oxo-2-[(4-quinazolin-7-ylthiazol-2-yl)amino]ethyl]benzamide]	100 to 1000 nM		100 to 1000 nM		>80%	>80%
CC(=O)N(C)Cc1ccc(-c2cccc(-c3csc(NC(=O)CNC(=O)c4ccc(N)cc4)n3)c2)cc1 [Compound 138, 4-amino-N-(2-((4-(4′-((N-methylacetamido)methyl)-[1,1′-biphenyl]-3-yl)thiazol-2-yl)amino)-2-oxoethyl)benzamide]	100 to 1000 nM		100 to 1000 nM		>90%	>90%
Cc1cc(-c2cccc(-c3csc(NC(=O)CNC(=O)c4ccc(N)cc4)n3)c2)on1 [Compound 231, 4-amino-N-[2-[[4-[3-(3-methylisoxazol-5-yl)phenyl]thiazol-2-yl]amino]-2-oxo-ethyl]benzamide]	100 to 1000 nM					
Cn1ncc2ccc(-c3csc(NC(=O)CNC(=O)c4ccc(N)cc4)n3)cc21 [Compound 228, 4-amino-N-[2-[[4-(1-methylindazol-6-yl)thiazol-2-yl]amino]-2-oxo-ethyl]benzamide]	100 to 1000 nM		100 to 1000 nM		>90%	>90%
CSCC[C@H](NC(=O)c1ccc(O)cc1)C(=O)Nc1nc(-c2ccccc2)cs1 [Compound 53, 4-hydroxy-N-[(1S)-3-methylsulfanyl-1-[(4-phenylthiazol-2-yl)carbamoyl]propyl]benzamide]	1000 to 10000 nM		1000 to 10000 nM			
CN(C)S(=O)(=O)c1cccc(C(=O)NCC(=O)Nc2cccc(-c3ccccc3)c2)c1 [Compound 40, 3-(dimethylsulfamoyl)-N-[2-oxo-2-(3-phenylanilino)ethyl]benzamide]		>50%		<30%		
CN(C)Cc1cc(-c2cccc(-c3csc(NC(=O)CNC(=O)c4ccc(N)cc4)n3)c2)ccn1 [Compound 168, 4-amino-N-(2-((4-(3-(2-((dimethylamino)methyl)pyridin-4-yl)phenyl)thiazol-2-yl)amino)-2-oxoethyl)benzamide]	< 100 nM		< 100 nM		>95%	>95%
CN(C)S(=O)(=O)c1cccc(C(=O)NCC(=O)Nc2nc(-c3ccccn3)cs2)c1 [Compound 32, 3-(dimethylsulfamoyl)-N-[2-oxo-2-[[4-(2-pyridyl)thiazol-2-yl]amino]ethyl]benzamide]	> 10000 nM	>30%	> 10000 nM	<30%		
CN(C)S(=O)(=O)c1cccc(C(=O)NCC(=O)Nc2nc(-c3cccc(C#N)c3)cs2)c1 [Compound 8, N-[2-[[4-(3-cyanophenyl)thiazol-2-yl]amino]-2-oxo-ethyl]-3-(dimethylsulfamoyl)benzamide]	1000 to 10000 nM	>90%	> 10000 nM	>70%		
CSCC[C@H](NC(=O)c1ccc2[nH]ccc2c1)C(=O)Nc1nc(-c2ccccc2)cs1 [Compound 83, (S)—N-(4-(methylthio)-1-oxo-1-((4-phenylthiazol-2-yl)amino)butan-2-yl)-1H-indole-5-carboxamide]	1000 to 10000 nM	>90%				
NCCn1ccc2ccc(-c3csc(NC(=O)CNC(=O)c4ccc(N)cc4)n3)cc2c1=O [Compound 171, 4-amino-N-(2-((4-(2-(2-aminoethyl)-1-oxo-1,2-dihydroisoquinolin-7-yl)thiazol-2-yl)amino)-2-oxoethyl)benzamide]	100 to 1000 nM		100 to 1000 nM		>95%	>95%
CC(C)(C(=O)O)n1ccc(-c2cccc(-c3csc(NC(=O)CNC(=O)c4ccc(N)cc4)n3)c2)n1 [Compound 212, 2-[3-[3-[2-[[2-[(4-aminobenzoyl)amino]acetyl]amino]thiazol-4-yl]phenyl]pyrazol-1-yl]-2-methyl-propanoic acid]	100 to 1000 nM		100 to 1000 nM		>95%	>95%
CSCC[C@H](NC(=O)c1cc(S(=O)(=O)N(C)C)cs1)C(=O)Nc1nc(-c2ccccc2)cs1 [Compound 64, 4-(dimethylsulfamoyl)-N-[(1S)-3-methylsulfanyl-1-[(4-phenylthiazol-2-yl)carbamoyl]propyl]thiophene-2-carboxamide]	1000 to 10000 nM	>70%	1000 to 10000 nM	>60%		
CN(C)CC[C@H](NC(=O)c1ccc(N)cc1)C(=O)Nc1nc(-c2cccc(-c3ccncc3)c2)cs1 [Compound 233, (S)-4-amino-N-(4-(dimethylamino)-1-oxo-1-((4-(3-(pyridin-4-yl)phenyl)thiazol-2-yl)amino)butan-2-yl)benzamide]	100 to 1000 nM		100 to 1000 nM		>90%	>80%
Nc1ccc(C(=O)NCC(=O)Nc2nc(-c3cccc(N4CCC(C(=O)O)CC4)c3)cs2)cc1 [Compound 187, 1-[3-[2-[[2-[(4-aminobenzoyl)amino]acetyl]amino]thiazol-4-yl]phenyl]piperidine-4-carboxylic acid]	100 to 1000 nM		100 to 1000 nM		>70%	>60%
CNC(=O)Cn1ccc(-c2cccc(-c3csc(NC(=O)CNC(=O)c4ccc(N)cc4)n3)c2)n1 [Compound 216, 4-amino-N-[2-[[4-[3-[1-[2-(methylamino)-2-oxo-ethyl]pyrazol-3-yl]phenyl]thiazol-2-yl]amino]-2-oxo-ethyl]benzamide]	< 100 nM		100 to 1000 nM		>90%	>95%
Nc1ccc(C(=O)NCC(=O)Nc2nc(-c3cccc(-c4ccncc4)c3)cs2)cc1 [Compound 117, 4-amino-N-(2-oxo-2-((4-(3-(pyridin-4-yl)phenyl)thiazol-2-yl)amino)ethyl)benzamide]	< 100 nM					
Cc1nnc(-c2cccc(-c3csc(NC(=O)CNC(=O)c4ccc(N)cc4)n3)c2)o1 [Compound 113, 4-amino-N-(2-((4-(3-(5-methyl-1,3,4-oxadiazol-2-yl)phenyl)thiazol-2-yl)amino)-2-oxoethyl)benzamide]	100 to 1000 nM					
CSCC[C@@H](NC(=O)c1ccc(N)cc1)C(=O)Nc1nc(-c2cccc(-c3ccncc3)c2)cs1 [Compound 155, (R)-4-amino-N-(4-(methylthio)-1-oxo-1-((4-(3-(pyridin-4-yl)phenyl)thiazol-2-yl)amino)butan-2-yl)benzamide]					>80%	
